{
  "source": "paper PMC8706149",
  "about": "(International Journal of Molecular Sciences, 2021)",
  "key": {"[1]": {"system": "Bacillus globigii TNO BMO13", "experiment": "MIC, broth microdilution", "type": "cell-based", "details": "Bacillus subtilis, TNOBMO13, read-out: MIC (µg/mL) Bacillus globigii TNO BMO13", "procedure": "(§1) All the labeled peptide after purification were lyophilized and dissolved in water. Purity was veri-fi e d by RP-HPLC on C18 column . Pepti de i dentity was assessed by mass spectrometry anal yses (Supplementary Methods, section S4; Table S1).\n(§2) S6. Antimicrobial activity assay\n(§3) MIC (Minimum Inhibitory Concentration) analyses were performed by broth microdilution method for antimicrobial peptides previously described wi th mi nor modi ficati ons. In detai l s, assays were carried out in Nutrient Broth 0.5x (Difco, Detroit, MI, US A ) usi ng st e r i le 96-well polypropylene mi-croti ter pl ates (cat. 3879, C ostar C orp., C ambri dge, MA , US A ). Bacterial strains were grown in Luria-Bertani (LB) medium overnight at 37°C and then diluted in Nutrient Broth at a final concentration of ~5x10^5 CFU/mL per well. Twofold serial dilutions of peptides were carried out in the test wells […]\n(§4) Plates were incubated overnight at 37°C. MIC value was taken as the lowest concentration at which growth was inhibited. Three independent experiments we r e performed for each MIC value. […] MIC values were measured on Gram-negative ( E scherichia coli ATCC 25922) and Gram-po si t i ve st r ains (Sta phyl o co ccus a ure us ATCC 6538P and Bacillus globigii TNO BMO13) . […]"}, "[2]": {"experiment": "Photostability under constant excitation", "type": "physicochemical", "details": "60 min constant excitation at maximum absorption (Figure S3)", "from_the_text": "As comparative control, we used the very photostable fluorophore PyMPO [33] by treating PyMPO-(C)GKY20 in the same conditions."}, "[3]": {"details": "cited from earlier work; for pKa of the phenolic group of luciferin: ground state", "from_the_text": "Excited states are indicated by an asterisk. (C) Condensation reaction between 6-substituted 2-cyanobenzothiazoles and cysteine (free or as N-terminal residue of a peptide). R1 and R2 can be a wide variety of alkyl and acyl groups."}, "[4]": {"system": "Escherichia coli ATCC 25922", "type": "cell-based", "details": "positive control antibiotic; Nutrient Broth 0.5x, overnight 37°C", "procedure": "as §1, §2, §3, §4"}},
  "note": "Like-named read-outs stand apart in the source and are kept apart here. Marks after values point to notes of the source that are not given here. Bridge positions count the residues as written; N and C are the ends. Square brackets hold non-standard residues; d marks the D form. Peptide text beside a SMILES is read from it. * marks the point of attachment. X1 = CC[C@H](C)CCCCC(=O)*; Dab = NCC[C@H](N)C(=O)O",
  "data": [
    {"molecule": "CN[C@H](CC(C)C)C(=O)N[C@H]1C(=O)N[C@@H](CC(N)=O)C(=O)N[C@H]2C(=O)N[C@H]3C(=O)N[C@H](C(=O)N[C@H](C(=O)O)c4cc(O)cc(O)c4-c4cc3ccc4O)[C@H](O)c3ccc(c(Cl)c3)Oc3cc2cc(c3O[C@@H]2O[C@H](CO)[C@@H](O)[C@H](O)[C@H]2O[C@H]2C[C@](C)(N)[C@H](O)[C@H](C)O2)Oc2ccc(cc2Cl)[C@H]1O", "note": "[Vancomycin, vancomycin]", "values": [
      {"measurement": "MIC", "setting": "[1]", "result": 2, "unit": "µg/mL"}
    ]},
    {"molecule": "1-[2-(maleimido)ethyl]-4-[5-(4-methoxyphenyl)-2-oxazolyl]pyridinium-labeled GKY20 [PyMPO-(C)GKY20]", "values": [
      {"measurement": "loss of initial fluorescence", "setting": "[2]", "result": 43, "unit": "%"}
    ]},
    {"molecule": "O=C(O)[C@H]1CSC(c2nc3ccc(O)cc3s2)=N1", "note": "[Free Luc, luciferin]", "values": [
      {"measurement": "pKa of the phenolic group of luciferin", "setting": "[3]", "result": "8.70 ^b"},
      {"measurement": "pKa of the phenolic group of luciferin", "setting": "[3]; listed as LUC-OH", "result": 8.7},
      {"measurement": "pKa of the phenolic group of luciferin", "setting": "[3]; listed as Luc", "result": "≈ 8.7"},
      {"measurement": "pKa of light-induced dissociation (excited state) of luciferin", "setting": "[3]; photoacid, excited state", "result": "< 1"}
    ]},
    {"molecule": "CC[C@H](C)CCCCC(=O)N[C@@H](CCN)C(=O)N[C@H](C(=O)N[C@@H](CCN)C(=O)N[C@H]1CCNC(=O)[C@H]([C@@H](C)O)NC(=O)[C@H](CCN)NC(=O)[C@H](CCN)NC(=O)[C@H](CC(C)C)NC(=O)[C@@H](Cc2ccccc2)NC(=O)[C@H](CCN)NC1=O)[C@@H](C)O", "note": "[Polymyxin B, polymyxin B] (X1-[Dab]T[Dab][Dab][Dab][dF]L[Dab][Dab]T; lactam 4-C (inferred); N-terminus assumed)", "values": [
      {"measurement": "MIC (µg/mL) Escherichia coli 25922 ATCC", "setting": "[4]", "result": 0.5, "unit": "µg/mL"}
    ]}
  ]
}
